Structures can show the parent of a compound that is named as a salt. Where two headings read alike, the source gives them in different places.
Tests used:
[1] = Stability of the crystalline form (qualitative, no method described); type: physicochemical; conditions: applicant's statement
[2] = Solubility in aqueous fluids (qualitative, no method described); type: physicochemical
[3] = Dissolution rate (qualitative, no method described); type: physicochemical; conditions: with regard to bioavailability in pharmaceutical formulations
[4] = as reported in U.S. Patent 5,248,699, among Forms I-V; cited from earlier work

| stability [1] | solubility in aqueous fluids ([2]; as compared with Form I sertraline hydrochloride) | solubility ([2]; prepared in applicant's laboratory according to Sysko et al., aqueous fluids) | SMILES | dissolution rate [3] | stability [4] |
| --- | --- | --- | --- | --- | --- |
| acceptable stability | enhanced solubility in aqueous fluids |  | CN[C@H]1CC[C@@H](c2ccc(Cl)c(Cl)c2)c2ccccc21 [polymorph T1, (1S-cis)-4-(3,4-dichlorophenyl)-1,2,3,4-tetrahydro-N-methyl-1-naphthalenamine] |  |  |
| stable as reported |  | extremely insoluble | CN[C@H]1CC[C@@H](c2ccc(Cl)c(Cl)c2)c2ccccc21 [sertraline hydrochloride Form I, (1S-cis)-4-(3,4-dichlorophenyl)-1,2,3,4-tetrahydro-N-methyl-1-naphthalenamine] | too slow to provide adequate bioavailability | greatest stability |

From patent publication EP0928784B1, “Sertraline polymorph having improved water solubility” (TORCAN CHEMICAL Ltd, priority 1997, dated 1999)
